Data on four compounds can be found in US12692221B2 (priority 2024, dated 2026).

In one test the target is T1, A2A (h) (Homo sapiens, UniProt P29274).
T1 construct: expressed in transfected cells; host or cells: HEK-293 cells
As to the kind of experiment: Radioligand binding A2A (h) (agonist radioligand), [^3H]CGS 21680, HEK-293 cells. The procedure:
(§1) Methods—Binding Assays: In vitro binding assays were performed using human recombinant receptors expressed in mammalian cell lines. Receptors were expressed in either HEK-293 or CHO cells depending on the target, and assay conditions (radioligand, concentration, nonspecific competitor, temperature, and incubation time) were optimized for each receptor. All assays were conducted in triplicate, and specific binding was quantified by scintillation counting as the detection method for each listed assay.
(§2) Specific binding was expressed as a percentage of control-specific binding, and percent inhibition was calculated using the formula in Ex. 8 above. Half-maximal inhibitory concentrations (IC50) were determined by non-linear regression analysis of the inhibition curves using the Hill equation (see Ex. 8). Inhibition constants (Ki) were calculated using the Cheng-Prusoff equation (see Ex. 8). KD values used in these calculations had been previously established for each receptor under the assay conditions (see Table 6). Data analysis was performed using software developed at Cerep and validated against SigmaPlot 4.0 for Windows.

The next test addresses T2, alpha1A (h) (Homo sapiens, UniProt P35348).
T2 construct: expressed in transfected cells; host or cells: CHO cells
T2 sequence (P35348 1-466): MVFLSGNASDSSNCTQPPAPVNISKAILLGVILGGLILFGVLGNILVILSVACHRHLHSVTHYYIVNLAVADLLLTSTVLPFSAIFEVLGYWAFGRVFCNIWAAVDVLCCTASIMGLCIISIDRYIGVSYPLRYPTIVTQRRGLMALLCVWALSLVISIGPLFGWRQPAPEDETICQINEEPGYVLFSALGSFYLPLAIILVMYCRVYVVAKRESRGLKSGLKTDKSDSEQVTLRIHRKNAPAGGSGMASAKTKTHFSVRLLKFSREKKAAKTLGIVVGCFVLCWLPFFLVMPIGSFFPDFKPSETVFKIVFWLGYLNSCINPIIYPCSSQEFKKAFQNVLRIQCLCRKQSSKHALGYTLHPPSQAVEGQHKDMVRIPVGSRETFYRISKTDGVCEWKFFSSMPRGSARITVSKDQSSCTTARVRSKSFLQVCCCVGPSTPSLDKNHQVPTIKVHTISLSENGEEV
As to the kind of experiment: Radioligand binding alpha1A (h) (antagonist radioligand), [^3H]prazosin, CHO cells. The procedure: as §1, §2

Another test has as its target T3, ETA (h) (Homo sapiens, UniProt P25101).
T3 construct: expressed in transfected cells; host or cells: CHO cells
T3 sequence (P25101 21-427): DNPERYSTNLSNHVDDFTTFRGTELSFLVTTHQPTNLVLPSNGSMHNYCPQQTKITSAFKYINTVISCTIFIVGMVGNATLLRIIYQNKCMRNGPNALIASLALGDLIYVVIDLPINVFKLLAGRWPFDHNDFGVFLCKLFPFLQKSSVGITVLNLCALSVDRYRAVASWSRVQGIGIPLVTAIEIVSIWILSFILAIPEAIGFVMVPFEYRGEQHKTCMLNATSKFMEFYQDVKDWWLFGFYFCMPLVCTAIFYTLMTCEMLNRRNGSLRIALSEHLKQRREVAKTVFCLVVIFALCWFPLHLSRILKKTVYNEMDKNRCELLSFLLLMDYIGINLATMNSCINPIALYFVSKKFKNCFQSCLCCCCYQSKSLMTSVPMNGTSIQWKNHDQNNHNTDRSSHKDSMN
As to the kind of experiment: Radioligand binding ETA (h) (agonist radioligand), [^125I]endothelin-1, CHO cells. The procedure: as §1, §2

The next test addresses T4, M2 (h) (Homo sapiens, UniProt P08172).
T4 construct: expressed in transfected cells; host or cells: CHO cells
T4 sequence (P08172 1-466): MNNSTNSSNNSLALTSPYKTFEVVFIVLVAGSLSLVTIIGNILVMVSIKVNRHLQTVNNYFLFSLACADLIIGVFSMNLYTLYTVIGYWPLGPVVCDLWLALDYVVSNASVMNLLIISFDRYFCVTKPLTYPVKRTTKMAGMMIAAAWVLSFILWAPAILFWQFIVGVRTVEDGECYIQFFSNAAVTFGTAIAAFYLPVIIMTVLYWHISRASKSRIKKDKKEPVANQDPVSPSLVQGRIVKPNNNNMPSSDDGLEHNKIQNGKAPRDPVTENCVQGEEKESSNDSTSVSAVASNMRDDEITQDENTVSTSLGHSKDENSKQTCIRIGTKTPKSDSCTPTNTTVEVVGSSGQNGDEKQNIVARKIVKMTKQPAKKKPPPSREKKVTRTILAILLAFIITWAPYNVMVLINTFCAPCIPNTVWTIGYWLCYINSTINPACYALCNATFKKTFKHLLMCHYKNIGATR
As to the kind of experiment: Radioligand binding M2 (h) (antagonist radioligand), [^3H]AF-DX 384, CHO cells. The procedure: as §1, §2

The target in a further test is T5, 5-HT2C (Homo sapiens, UniProt P28335).
T5 construct: host or cells: HEK293
As to the kind of experiment: cell-based. The following applies: IP-1 accumulation.

Another test deals with T6, 5-HT2A (h) (Homo sapiens, UniProt P28223).
T6 construct: host or cells: HEK-293 cells
As to the kind of experiment: Radioligand binding 5-HT2A (h) (agonist radioligand), [^125I](±)DOI, HEK-293 cells.

A further test addresses T7, 5-HT2B (h) (Homo sapiens, UniProt P41595).
T7 construct: host or cells: CHO cells
As to the kind of experiment: Radioligand binding 5-HT2B (h) (agonist radioligand), [^125I](±)DOI, CHO cells.

Another test concerns the target T8, 5-HT2C (h) (Homo sapiens, UniProt P28335).
T8 construct: host or cells: HEK-293 cells
T8 sequence (P28335 33-458): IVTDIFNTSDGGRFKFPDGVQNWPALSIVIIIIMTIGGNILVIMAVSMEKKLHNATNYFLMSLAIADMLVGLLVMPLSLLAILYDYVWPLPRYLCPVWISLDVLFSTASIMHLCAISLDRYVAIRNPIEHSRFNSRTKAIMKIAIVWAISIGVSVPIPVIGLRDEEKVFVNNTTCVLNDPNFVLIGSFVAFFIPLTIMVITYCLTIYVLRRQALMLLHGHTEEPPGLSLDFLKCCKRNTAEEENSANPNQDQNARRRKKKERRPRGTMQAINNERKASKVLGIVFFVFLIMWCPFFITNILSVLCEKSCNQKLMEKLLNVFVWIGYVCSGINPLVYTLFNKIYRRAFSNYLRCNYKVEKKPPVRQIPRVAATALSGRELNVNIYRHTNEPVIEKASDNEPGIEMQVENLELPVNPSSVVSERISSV
As to the kind of experiment: Radioligand binding 5-HT2C (h) (agonist radioligand), [^125I](±)DOI, HEK-293 cells.

T7 sequence (P41595 whole entry): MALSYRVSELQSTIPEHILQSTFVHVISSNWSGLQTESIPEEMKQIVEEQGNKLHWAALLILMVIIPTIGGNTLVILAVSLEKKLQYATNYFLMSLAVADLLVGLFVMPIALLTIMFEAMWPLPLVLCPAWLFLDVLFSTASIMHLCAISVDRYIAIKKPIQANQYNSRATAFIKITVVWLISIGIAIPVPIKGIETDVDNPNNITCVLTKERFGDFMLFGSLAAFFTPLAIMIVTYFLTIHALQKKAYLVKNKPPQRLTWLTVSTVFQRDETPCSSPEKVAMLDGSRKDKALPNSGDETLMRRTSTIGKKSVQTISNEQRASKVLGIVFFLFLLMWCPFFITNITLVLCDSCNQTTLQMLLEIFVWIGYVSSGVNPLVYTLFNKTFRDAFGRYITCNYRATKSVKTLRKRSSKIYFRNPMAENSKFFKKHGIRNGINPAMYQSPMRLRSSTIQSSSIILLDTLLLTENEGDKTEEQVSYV
T1 sequence (P29274 whole entry): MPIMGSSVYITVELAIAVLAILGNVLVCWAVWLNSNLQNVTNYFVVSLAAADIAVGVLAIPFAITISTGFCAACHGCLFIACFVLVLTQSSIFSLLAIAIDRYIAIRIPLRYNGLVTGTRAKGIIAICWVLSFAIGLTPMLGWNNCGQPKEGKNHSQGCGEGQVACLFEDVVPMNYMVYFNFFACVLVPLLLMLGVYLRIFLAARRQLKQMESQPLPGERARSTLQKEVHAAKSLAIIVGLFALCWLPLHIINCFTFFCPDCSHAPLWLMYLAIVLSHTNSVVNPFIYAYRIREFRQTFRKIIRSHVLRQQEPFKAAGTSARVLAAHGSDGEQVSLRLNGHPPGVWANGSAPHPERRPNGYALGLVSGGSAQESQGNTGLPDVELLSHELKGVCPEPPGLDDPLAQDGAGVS
T6 sequence (P28223 whole entry, looked up): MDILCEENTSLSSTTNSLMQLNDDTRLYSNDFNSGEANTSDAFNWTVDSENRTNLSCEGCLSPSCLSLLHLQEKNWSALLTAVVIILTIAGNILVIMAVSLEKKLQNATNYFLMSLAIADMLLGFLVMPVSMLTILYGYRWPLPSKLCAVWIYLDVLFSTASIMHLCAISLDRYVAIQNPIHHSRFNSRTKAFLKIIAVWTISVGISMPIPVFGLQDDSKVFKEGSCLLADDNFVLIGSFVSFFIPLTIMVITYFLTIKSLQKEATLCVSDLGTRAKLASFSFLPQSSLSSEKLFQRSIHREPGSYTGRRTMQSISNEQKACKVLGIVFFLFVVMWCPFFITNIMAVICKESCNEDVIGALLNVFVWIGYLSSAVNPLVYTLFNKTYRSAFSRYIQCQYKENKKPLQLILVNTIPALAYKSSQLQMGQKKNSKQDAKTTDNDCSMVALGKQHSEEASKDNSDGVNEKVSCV

As to `COCc1cc(CCN)c(O)cc1CC(C)C` [2CiBu-2OH-5MM, 2-(2-aminoethyl)-5-isobutyl-4-(methoxymethyl)phenol], the “Mean Percent Inhibition of Control Specific Binding” value (from here on “Mean Percent Inhibition”) on A2A (h) is 11.0%; on alpha1A (h), 51.6%; on ETA (h), −9.0%; on M2 (h) it was 14.9%.
By EC50 is commonly meant the midpoint of the concentration-response curve. Lower therefore signals higher potency in that assay. Consider `COCCc1cc(CCN)c(OC)cc1Br` [Compound 2CB-5ME, reference compound], for which a half-maximal response on 5-HT2C (EC50) required 265 nM. Moreover, the “Mean Percent Inhibition” value is 98.8% on 5-HT2A (h) (5-HT2A(h) (agonist radioligand)); 104.1% at 5-HT2B (h) (5-HT2B(h) (agonist radioligand)); 99.3% on 5-HT2C (h) (5-HT2C(h) (agonist radioligand)); −21.3% on A2A (h); 33.6% on alpha1A (h); −3.5% at ETA (h). Further, the “Mean Percent Inhibition” value on M2 (h) stood at 21.5%.
The compound `COCc1cc(CCN)c(OC)cc1Br` [Compound 2CB-5MM, 2-(4-bromo-2-methoxy-5-(methoxymethyl)phenyl)ethan-1-amine] gave an EC50 on 5-HT2C of 225 nM. Further, the “Mean Percent Inhibition” value on A2A (h) is recorded as 12.2%; on alpha1A (h), 29.4%; at ETA (h), −6.5%; on M2 (h), 10.0%.
Usually IC50 stands for the concentration that gives 50% inhibition. In general, Ki refers to the dissociation constant of the complex between target and ligand, obtained from inhibition or displacement. Low readings indicate a stronger hold on the target, high ones a looser hold on the target. On to `COCc1cc(CCN)c(OC)cc1CC(C)C` [Compound 2CiBu-5MM, 2-[4-isobutyl-2-methoxy-5-(methoxymethyl)phenyl]ethanamine], for which the IC50 on 5-HT2A (h) is 57 nM; on 5-HT2B (h), 270 nM; on 5-HT2C (h), 14 nM. For the same compound, the results for the Ki at 5-HT2A (h), on 5-HT2B (h) and at 5-HT2C (h) were 43 nM, 130 nM and 12 nM, respectively. For the same compound, the nH at 5-HT2A (h) (5-HT2A, Hill coefficient) stood at 0.6; at 5-HT2B (h) (5-HT2B, Hill coefficient) it was 0.7; on 5-HT2C (h) (5-HT2C, Hill coefficient) it was 0.9. For the same compound, the “Mean Percent Inhibition” value on A2A (h) is recorded as 1.1%; on alpha1A (h), 7.6%; on ETA (h), −1.5%; at M2 (h), 16.0%.
